Assay results as given in patent publication US6624190B2, “2-acylamino-2-deoxy-glucono-1,5-lactones, a method for the production thereof, compositions containing them, and uses thereof” (Universite Pierre et Marie Curie (Paris VI), priority 1998, dated 2003).

What was measured:
[1] = Determination of critical micellar concentration by surface tension (Wilhelmy plate method); type: physicochemical
Method: The surface tension γ of a liquid in contact with air was measured at 25° C. by the Wilhelmy plate method (Prolabo TENSIMAT n3 tensometer). This consisted of plunging a vertical platinum strip (19.54 mm long) into a liquid then gradually withdrawing it, monitoring the tension exerted on the strip by the liquid film. The maximum value recorded before complete detachment of the strip represented the surface tension, expressed in mN/m. After calibrating the apparatus (calibration at two points: the zero value with the strip in air and a value of 50.2 mN/m with the strip tested with a weight of 200 mg), the surface tensions of solutions containing increasing quantities of the surfactant were recorded (measurements repeated three times). The critical micellar concentration was obtained from conventional graphs of γ=f(logC) where C represents the concentration in mol/l.
The change in surface tension γ (in mN/m) of an aqueous solution (volume=10 ml) was monitored as a function of the quantities of dissolved product (C, in Mol/l) (A=C(O)C7H15 and R2=CH3). The critical micellar concentration corresponds to the concentration above which the surface tension becomes a constant.

[2] = tested on: bovine kidney β—N-acetyl glucosaminidase (EC 3.2.1.52); test: N-acetyl glucosaminidase (NaGase) enzymatic inhibition, pNphNAG substrate; type: biochemical
Method: The enzyme used as a reference was bovine kidney β—N-acetyl glucosaminidase (EC 3.2.1.52) (Sigma A-2415) and its substrate was p-nitrophenyl 2-acetamido-2-deoxy glucopyranoside (Acros 22941-1000) (pNphNAG). The commercially available enzyme, in the form of a suspension in a 3.2 M solution of (NH4)2SO4, was centrifuged at 13000 rpm for 5 minutes and the residue was taken up in 1 ml of water. The solution obtained was the mother enzymatic solution.
Protocol: 100 μl of the enzymatic solution diluted to 1/10 was mixed with 100 μl of pH 4.2 citrate buffer and 300 μl of inhibitor solution (or water for the reference) and incubated at 37° C. for 5 minutes in a spectrophotometer cell. After adding 500 μl of substrate (5 mM or 2.5 mM), incubation was continued for 8 minutes at 37° C. and the optical density at 400 nm was monitored. The quantity of p-nitrophenol liberated by the enzymatic reaction was determined by correlating the optical density to a calibration curve (OD at 400 nm=f([p-nitrophenol])). The N-acetyl glucosaminidase activity unit was defined as the quantity of enzyme required to liberate one μmole of p-nitrophenol per minute under the conditions cited above.
I50 is defined as the concentration of compound capable of inhibiting 50% of the enzymatic activity under the assay conditions.
We colorimetrically monitored the quantities of p-nitrophenol liberated (in 10^−3 μmol/mn) by the action of N-acetyl glucosaminidase (NaGase) on pNphNAG (2.5 mM) in the presence of increasing quantities of (i) (concentration C in mM).
In order to determine the inhibition constant K1, we used Dixon's graphical method, which consisted of plotting the inverse of the initial velocity (1 Iv0) of the enzymatic reaction against the inhibitor concentration (C, in μM) for two different substrate concentrations. The abscissa of the intersection point of the two straight lines corresponds to —K1.

[3] = molecular target: T1, chicken lysozyme (Gallus gallus, UniProt P00698); test: Lysozyme inhibition, Micrococcus lysodeikticus walls substrate; type: biochemical
T1 construct: purchased Sigma L-6876
Method: The enzyme studied was 0.5 g/l chicken lysozyme (Sigma, L-6876) in a 100 mM, pH 6.5 phosphate buffer and the substrate was constituted by 17 mg/100 ml of Micrococcus lysodeikticus walls in suspension in the same buffer.
Protocol: 100 μl of enzymatic solution was diluted with 400 μl of inhibitor solution. This was left at ambient temperature for 5 or 10 minutes. 40 μl of mixture was added to 3 ml of the substrate suspension in a spectrophotometer cell. The optical density was recorded at 450 nm every 10 seconds for 3 minutes.

[4] = comparison values; cited from earlier work

T1 sequence (P00698 19-147): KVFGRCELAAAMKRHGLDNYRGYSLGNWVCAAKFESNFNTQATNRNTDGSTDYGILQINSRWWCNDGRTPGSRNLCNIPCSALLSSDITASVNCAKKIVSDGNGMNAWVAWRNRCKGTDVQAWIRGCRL

| Compound | critical micellar concentration (CMC) ([1]; aqueous solution, 25° C.) [mM] | surface tension of water reduced to ([1]; reduction from 71 mN/m for concentrations of 0 to 25 mM (8.6 g/l)) [mN/m] | nature of inhibition ([2]; Dixon diagram) | Ki ([2]; Dixon's graphical method, substrate 2.5 mM and 5 mM, read-out: inhibition constant K1) [µM] | IC50 ([2]; pNphNAG 2.5 mM, pH 4.2 citrate buffer, 37° C., read-out: I50) [µM] | effect on lysozyme activity ([3]; 0.1 mg/ml lysozyme, compound 1.8 mM) | affinity for lysozyme ([3]; summary) | critical micellar concentration (CMC) of commercially available glycosylated surfactants [4] [mM] |
| --- | --- | --- | --- | --- | --- | --- | --- | --- |
| CCCCCCCC(=O)OC[C@H]1OC(=O)[C@H](NC(C)=O)[C@@H](O)[C@@H]1O [(i), 2-acetamido-2-deoxy-6—O-octanoyl-glucono-1,5-lactone] | 25 | 30 | competitive | ~3 | ~7 | No difference was detected | no affinity | – |
| CCCCCCCNC(=O)OC[C@H]1O[C@H](OC)[C@H](O)[C@@H](O)[C@@H]1O [HECAMEG] | – | – | – | – | – | – | – | 22 |
| CCCCCCCCO[C@@H]1O[C@H](CO)[C@@H](O)[C@H](O)[C@H]1O [octyl glucoside, n-octyl glucoside] | – | – | – | – | – | – | – | 18 |
